From patent US20240108618A1, “KRAS G12C INHIBITOR DOSING REGIMENS” (Eli Lilly and Company, priority 2022, published 2024)
“And” between values parts separate entries of the source, which are not always exact repeats. Equal entries are not always repeated. “Also recorded” adds a separate entry of the source.

Tests used:
H358 lung tumor cells = assay: Anti-tumor growth activity in lung cancer H358 xenograft mouse model; type: in vivo
Protocol: H358 lung tumor cells (10×10^6) are implanted by subcutaneous injection in hind leg of nude female mice (Taconic Biosciences). A total of 4 mice in each group are used for the efficacy study. Treatment is initiated with oral administration (gavage) of the test compound or vehicle (20% Captisol®, 25 mM phosphate, pH 2.0 in 0.2 mL volume) once or twice daily for 28 days when the tumor size reaches approximately 300 mg. Tumor growth and body weight are monitored over time to evaluate efficacy and signs of toxicity.

[1] = NCT04956640 Phase 1a monotherapy safety: treatment-emergent adverse events; details: in vivo
Source text: (§1) A “DLT” is defined as any of the treatment-emergent adverse event (TEAEs), as defined by the National Cancer Institute's Common Terminology Criteria for Adverse Events, version 5.0 (NCI CTCAE v5.0), deemed clinically significant and occurring during the first 21 days of study drug per dose level per patient, unless the adverse event (AE) can be clearly related to the patient's underlying disease, other medical condition, or concomitant medications including any AEs attributed by the Investigator to the combination agent alone. A TEAE is defined as an AE that starts or worsens on or after the date of the first dose of study drug (for example on Study Day 1) through 28 days (+14 days window) after the date of the last dose of study drug or the first date starting new anticancer therapy, whichever is earlier. A Serious TEAE is defined as an TEAE that is grade 3 or higher based on severity grade assignment as defined by the National Cancer Institute's Common Terminology Criteria for Adverse Events, version 5.0 (NCI CTCAE v5.0). A Fatal TEAE is defined as an TEAE that is grade 5 based on severity grade assignment as defined by the National Cancer Institute's Common Terminology Criteria for Adverse Events, version 5.0 (NCI CTCAE v5.0). […]

[2] = NCT04956640 Phase 1b Cohort C2 (with cetuximab) safety: treatment-emergent adverse events
Source text: as §1

[3] = tested on: KRAS G12C-mutant advanced NSCLC; assay: NCT04956640 Phase 1b Cohort B4 (with pembrolizumab) clinical response (BOR, ORR, DCR, DOR, TTR, % change from baseline, treatment duration); type: in vivo, human; details: for Time to response (TTR) 2 to <4 months / Time to response (TTR) <2 months: Phase 1b Cohort B4 responders
Protocol: The term “BOR” as used herein refers to best overall response based on investigator assessments using RECIST criteria (version 1.1). The minimum duration for BOR of SD is at least 6 weeks after the date of first dose of study drug.
The term “DOR” as used herein refers to duration of response, wherein DOR in months is calculated as the event or censoring date minus the response start date plus 1 day divided by 30.4375.
The term “ORR” as used herein refers to objective response rate, wherein objective response rate is the proportion of patients with BOR of CR or PR. Objective response rate, unconfirmed, is the proportion of patients with BOR of CR, PR, or uPR.
The term “TTR” as used herein refers to time to response, wherein TTR in months is calculated as response start date minus first dose date plus 1 day divided by 30.4375.

[4] = Phase 1b Cohort B4, Total (N = 13)
[5] = Phase 1b Cohort B4, individual patients, starting dose 50 BID, prior KRAS G12Ci Y
[6] = Phase 1b Cohort B4, individual patients, starting dose 100 BID, no prior KRAS G12Ci, listed as compound of Formula I
[7] = Phase 1b Cohort B4, individual patients, starting dose 150 BID, no prior KRAS G12Ci, listed as compound of Formula I
[8] = Phase 1b Cohort B4, individual patients, starting dose 150 BID, prior KRAS G12Ci Y, listed as compound of Formula I
[9] = Phase 1b Cohort B4, starting dose 50 mg BID (N = 1)
[10] = Phase 1b Cohort B4, starting dose 100 mg BID (N = 6)
[11] = Phase 1b Cohort B4, starting dose 150 mg BID (N = 6)
[12] = starting dose 50 mg BID (N = 1)
[13] = starting dose 100 mg BID (N = 6)
[14] = starting dose 150 mg BID (N = 6)

C=CC(=O)N1CCN2C(=O)c3cc(F)c(-c4ccc(F)c5sc(N)c(C#N)c45)c(Cl)c3OCC[C@H]2C1 (single isomer, unassigned) [Formula I]
% Regression (Day 12) (H358 lung tumor cells; 30 mg/kg PO, BID): −72.14% | % Regression (Day 26) (H358 lung tumor cells; 30 mg/kg PO, BID): −67.68% | % tumor regression (H358 lung tumor cells; 30 mg/kg twice daily): −67.68 to −72.14% | animal body weight loss (H358 lung tumor cells; through the whole study): No significant animal body weight loss | tolerability [1]: well tolerated | DLT ([2]; 100 mg BID): One DLT, a grade 3 ALT/AST ratio increase | permanent discontinuation due to TRAEs ([2]; in vivo): No Phase 1b Cohort C2 patient permanently discontinued | Duration of response (DOR) <6 months ([3]; 50 mg BID): 0 (NE) n (%) | Patients with best overall response of CR or PR ([3]; 50 mg BID (N = 1)): 0 (0.0) N′ (%) | Duration of response (DOR) <6 months ([3]; 100 mg BID): 2 (100.0) n (%) | Patients with best overall response of CR or PR ([3]; 100 mg BID (N = 6)): 2 (33.3) N′ (%) | Duration of response (DOR) <6 months ([3]; 150 mg BID): 3 (100.0) n (%) | Patients with best overall response of CR or PR ([3]; 150 mg BID (N = 6)): 3 (50.0) N′ (%) | Best overall response (BOR): Complete Response (CR), % [3, 4]: (0.0) % | Best overall response (BOR): Not Evaluable (NE), % [3, 4]: (0.0) % | Best overall response (BOR): Partial Response (PR), % [3, 4]: (38.5) % | Best overall response (BOR): Partial Response, pending confirmation and ongoing (uPR), % [3, 4]: (30.8) % | Best overall response (BOR): Progressive Disease (PD), % [3, 4]: (7.7) % | Best overall response (BOR): Stable Disease (SD), % [3, 4]: (23.1) % | Disease control rate (CR + PR + IPR + SD), % [3, 4]: (92.3) % | Objective response rate (CR + PR), % [3, 4]: (38.5) % | Objective response rate, confirmed and unconfirmed (CR + PR + uPR), % [3, 4]: (69.2) % | Patients with best overall response of CR or PR [3, 4]: 5 (38.5) N′ (%) | Time to response (months), Interquartile range [3, 4]: 0.07 months | Time to response (months), Median [3, 4]: 1.38 months | % Change from Baseline in Sum of Diameters for all Target Lesions [3, 5]: 1.1% | Time (months) of Progressive Disease [3, 5]: 1.1 months | % Change from Baseline in Sum of Diameters for all Target Lesions [3, 6]: 0.0% and −40.9% and −45.1% and −59.4% and −82.8% | Best Response [3, 6]: PR Pending; also recorded: PR Confirmed | Time (months) of Partial Response - Confirmed [3, 6]: 1.3 months and 1.1 months | Time (months) of Partial Response - Pending Confirmation and Ongoing [3, 6]: 1.3 months and 1.4 months | % Change from Baseline in Sum of Diameters for all Target Lesions ([3]; Phase 1b Cohort B4, individual patients, starting dose 100 BID, prior KRAS G12Ci Y): 0.0% | % Change from Baseline in Sum of Diameters for all Target Lesions [3, 7]: −29.5% and −38.2% and −49.2% and −57.7% | Best Response [3, 7]: PR Pending; also recorded: PR Confirmed | Time (months) of Partial Response - Confirmed [3, 7]: 1.4 months (2×) and 3.0 months | Time (months) of Partial Response - Pending Confirmation and Ongoing ([3]; Phase 1b Cohort B4, individual patients, starting dose 150 BID, prior KRAS G12Ci Y): 1.1 months | % Change from Baseline in Sum of Diameters for all Target Lesions [3, 8]: −32.1% and 7.3% | Best Response [3, 8]: PR Confirmed | Best overall response (BOR): Complete Response (CR), % [3, 9]: (0.0) % | Best overall response (BOR): Not Evaluable (NE), % [3, 9]: (0.0) % | Best overall response (BOR): Partial Response (PR), % [3, 9]: (0.0) % | Best overall response (BOR): Partial Response, pending confirmation and ongoing (uPR), % [3, 9]: (0.0) % | Best overall response (BOR): Progressive Disease (PD), % [3, 9]: (100.0) % | Best overall response (BOR): Stable Disease (SD), % [3, 9]: (0.0) % | Disease control rate (CR + PR + IPR + SD), % [3, 9]: (0.0) % | Objective response rate (CR + PR), % [3, 9]: (0.0) % | Objective response rate, confirmed and unconfirmed (CR + PR + uPR), % [3, 9]: (0.0) % | Patients with best overall response of CR or PR [3, 9]: 0 (0.0) N′ (%) | Best overall response (BOR): Complete Response (CR), % [3, 10]: (0.0) % | Best overall response (BOR): Not Evaluable (NE), % [3, 10]: (0.0) % | Best overall response (BOR): Partial Response (PR), % [3, 10]: (33.3) % | Best overall response (BOR): Partial Response, pending confirmation and ongoing (uPR), % [3, 10]: (33.3) % | Best overall response (BOR): Progressive Disease (PD), % [3, 10]: (0.0) % | Best overall response (BOR): Stable Disease (SD), % [3, 10]: (33.3) % | Disease control rate (CR + PR + IPR + SD), % [3, 10]: (100.0) % | Objective response rate (CR + PR), % [3, 10]: (33.3) % | Objective response rate, confirmed and unconfirmed (CR + PR + uPR), % [3, 10]: (66.7) % | Patients with best overall response of CR or PR [3, 10]: 2 (33.3) N′ (%) | Time to response (months), Interquartile range [3, 10]: 0.26 months | Time to response (months), Median [3, 10]: 1.22 months | Best overall response (BOR): Complete Response (CR), % [3, 11]: (0.0) % | Best overall response (BOR): Not Evaluable (NE), % [3, 11]: 0.0% | Best overall response (BOR): Partial Response (PR), % [3, 11]: (50.0) % | Best overall response (BOR): Partial Response, pending confirmation and ongoing (uPR), % [3, 11]: (33.3) % | Best overall response (BOR): Progressive Disease (PD), % [3, 11]: (0.0) % | Best overall response (BOR): Stable Disease (SD), % [3, 11]: (16.7) % | Disease control rate (CR + PR + IPR + SD), % [3, 11]: (100.0) % | Objective response rate (CR + PR), % [3, 11]: (50.0) % | Objective response rate, confirmed and unconfirmed (CR + PR + uPR), % [3, 11]: (83.3) % | Patients with best overall response of CR or PR [3, 11]: 3 (50.0) N′ (%) | Time to response (months), Interquartile range [3, 11]: 1.61 months | Time to response (months), Median [3, 11]: 1.41 months | Time to response (TTR) 2 to <4 months ([3]; Total (N = 13)): 1 (20.0) n (%) | Time to response (TTR) <2 months ([3]; Total (N = 13)): 4 (80.0) n (%) | Time to response (TTR) 2 to <4 months [3, 12]: 0 (NE) n (%) | Time to response (TTR) <2 months [3, 12]: 0 (NE) n (%) | Time to response (TTR) 2 to <4 months [3, 13]: 0 (0.0) n (%) | Time to response (TTR) <2 months [3, 13]: 2 (100.0) n (%) | Time to response (TTR) 2 to <4 months [3, 14]: 1 (33.3) n (%) | Time to response (TTR) <2 months [3, 14]: 2 (66.7) n (%) | Duration of response (DOR) <6 months ([3]; Total): 5 (100.0) n (%) | Patients with best overall response of CR or PR ([3]; Total (N = 13)): 5 (38.5) N′ (%) | median time to response ([3]; human, in vivo): 1.4 month
